Here are results for 9 compounds from patent US20240252488A1 (KOREA RESEARCH INSTITUTE OF CHEMICAL TECHNOLOGY, priority 2020, published 2024).

Test [1] deals with FADD−/− Jurkat cells. The experiment in a line: Necroptosis inhibition assay, TNF-α-induced necroptosis (CellTiter-Glo 2.0). The note with it: TNF-α 15 ng/mL; for Necroptosis inhibition assay (Rescue %) 1 μM: compound 1 μM; for Necroptosis inhibition assay (Rescue %) 10 μM: compound 10 μM. The class given is cell-based, human. Put shortly:
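Compound is added to cells at final concentrations of 0.1, 1 and 10 μM and left 30 minutes at room temperature. Necroptosis is induced with 15 ng/mL TNF-α, culture continues 20 to 24 hours at 37° C, and ATP-based luminescence reports viability.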

Test [2] concerns the target T1, MLKL (Homo sapiens, UniProt Q8NB16).
T1 sequence (Q8NB16 1-471): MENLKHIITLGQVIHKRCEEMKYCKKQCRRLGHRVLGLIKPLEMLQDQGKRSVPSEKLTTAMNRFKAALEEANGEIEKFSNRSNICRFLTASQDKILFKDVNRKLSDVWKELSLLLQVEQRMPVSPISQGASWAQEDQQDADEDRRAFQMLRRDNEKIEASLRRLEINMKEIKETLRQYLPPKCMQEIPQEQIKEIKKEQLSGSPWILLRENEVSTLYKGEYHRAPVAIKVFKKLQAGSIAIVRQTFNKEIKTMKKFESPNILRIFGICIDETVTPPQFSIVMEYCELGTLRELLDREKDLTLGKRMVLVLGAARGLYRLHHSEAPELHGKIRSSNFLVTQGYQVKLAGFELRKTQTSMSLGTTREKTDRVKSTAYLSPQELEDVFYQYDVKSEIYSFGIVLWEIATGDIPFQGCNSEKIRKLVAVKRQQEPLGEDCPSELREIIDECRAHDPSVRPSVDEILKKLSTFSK
Nature of the test: MLKL degradation assay in HepG2 cell line (western blot). The class given is cell-based. More on the design: endogenous in cells; host or cells: HepG2 or HaCaT. Conditions: cell line not given; for Degradation assay (Degradation %) 1 μM: compound 1 μM; for Degradation assay (Degradation %) 10 μM: compound 10 μM. Put shortly: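 Chemiluminescent western blot signal reports remaining MLKL protein in HepG2 cells after 20-24 h treatment with compound at a final 1 or 10 μM. Equal protein (10-15 μg, BCA) is loaded per lane.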

The target of test [3] is T1, MLKL. The experiment in a line: Measurement of binding affinity with MLKL receptor (competitive binding assay, Kd). Set-up: made in house; host or cells: HEK 293 cell line (T7 phage in E. coli BL21-derived host is also described). In a few lines: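 Kd comes from a bead-based competition format: compound-dependent loss of DNA-tagged, HEK 293-expressed MLKL capture, measured as eluate kinase by qPCR. Final DMSO is 0.9%.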

`COc1ccc(C(=O)N2CCC(OCCN3CCC(n4cc(-c5cnc(N)c(C(=O)O[C@@H](C(=O)Nc6ccc(F)cc6)c6ccccc6)n5)cn4)CC3)CC2)cc1N1CCC(=O)NC1=O` [TDH-448, (R)-2-((4-fluorophenyl)amino)-2-oxo-1-phenylethyl 3-amino-6-(1-(1-(2-((1-(3-(2,4-dioxotetrahydropyrimidin-1(2H)-yl)-4-methoxybenzoyl)piperidin-4-yl)oxy)ethyl)piperidin-4-yl)-1H-pyrazol-4-yl)pyrazine-2-carboxylate]: in test [1] (FADD−/− Jurkat cells), the “Necroptosis inhibition assay (Rescue %) 1 μM” value is recorded as 27.91% and the “Necroptosis inhibition assay (Rescue %) 10 μM” value turned out to be 20.07%. In test [2], the “Degradation assay (Degradation %) 1 μM” value is on record as 48.26% and the “Degradation assay (Degradation %) 10 μM” value was determined as 7.49%. Moreover, binding in test [3] was characterised by a dissociation constant (Kd) of 0.38 nM.
As to `Nc1ncc(-c2cnn(C3CCN(CCCN4CCN(C(=O)Cc5cccc(NC6=CC(=O)N(C7CCC(=O)NC7=O)C6=O)c5)CC4)CC3)c2)nc1C(=O)O[C@@H](C(=O)Nc1ccc(F)cc1)c1ccccc1` (stereo partly drawn) [TDH-495, (R)-2-((4-fluorophenyl)amino)-2-oxo-1-phenylethyl 3-amino-6-(1-(1-(3-(4-(2-(3-((1-(2,6-dioxopiperidin-3-yl)-2,5-dioxo-2,5-dihydro-1H-pyrrol-3-yl)amino)phenyl)acetyl)piperazin-1-yl)propyl)piperidin-4-yl)-1H-pyrazol-4-yl)pyrazine-2-carboxylate], in test [1] (FADD−/− Jurkat cells), the “Necroptosis inhibition assay (Rescue %) 1 μM” value is 42.19% and the “Necroptosis inhibition assay (Rescue %) 10 μM” value was found to be 17.62%. Moreover, in test [2], the “Degradation assay (Degradation %) 1 μM” value stood at 81.34% and the “Degradation assay (Degradation %) 10 μM” value worked out at 85.73%. Further, binding in test [3] was put at a Kd of 1.3 nM.
Taken in the same sequence, the figures for `Nc1ncc(-c2cnn(C3CCN(CCC4CCN(C(=O)C5CN(C6=CC(=O)N(C7CCC(=O)NC7=O)C6=O)C5)CC4)CC3)c2)nc1C(=O)O[C@@H](C(=O)Nc1ccc(F)cc1)c1ccccc1` (stereo partly drawn) [TDH-531, (R)-2-((4-fluorophenyl)amino)-2-oxo-1-phenylethyl 3-amino-6-(1-(1-(2-(1-(1-(1-(2,6-dioxopiperidin-3-yl)-2,5-dioxo-2,5-dihydro-1H-pyrrol-3-yl)azetidine-3-carbonyl)piperidin-4-yl)ethyl)piperidin-4-yl)-1H-pyrazol-4-yl)pyrazine-2-carboxylate] were 16.12%, 15.34%, 67.64%, 53.49% and 0.28 nM.
In the case of `Nc1ncc(-c2cnn(C3CCN(CCCCCCNC(=O)C4CCN(c5ccc6c(c5)C(=O)N(C5CCC(=O)NC5=O)C6=O)CC4)CC3)c2)nc1C(=O)O[C@@H](C(=O)Nc1ccc(F)cc1)c1ccccc1` (stereo partly drawn) [TDH-109, (R)-2-((4-fluorophenyl)amino)-2-oxo-1-phenylethyl 3-amino-6-(1-(1-(6-(1-(2-(2,6-dioxopiperidin-3-yl)-1,3-dioxoisoindolin-5-yl)piperidine-4-carboxamido)hexyl)piperidin-4-yl)-1H-pyrazol-4-yl)pyrazine-2-carboxylate], in test [1], the “Necroptosis inhibition assay (Rescue %) 1 μM” value is recorded as 71.74% and the “Necroptosis inhibition assay (Rescue %) 10 μM” value worked out at 48.69%. For the same compound, in test [2], the “Degradation assay (Degradation %) 1 μM” value came to 48.55% and the “Degradation assay (Degradation %) 10 μM” value was 56.91%. The compound further yielded a Kd in test [3] of 2.8 nM.
`Nc1ncc(-c2cnn(C3CCN(C[C@H]4CC[C@H](CNc5ccc6c(c5)C(=O)N(C5CCC(=O)NC5=O)C6=O)CC4)CC3)c2)nc1C(=O)O[C@@H](C(=O)Nc1ccc(F)cc1)c1ccccc1` (stereo partly drawn) [TDH-352, (R)-2-((4-fluorophenyl)amino)-2-oxo-1-phenylethyl 3-amino-6-(1-(1-(((1r,4r)-4-(((2-(2,6-dioxopiperidin-3-yl)-1,3-dioxoisoindolin-5-yl)amino)methyl)cyclohexyl)methyl)piperidin-4-yl)-1H-pyrazol-4-yl)pyrazine-2-carboxylate]: in test [1], the “Necroptosis inhibition assay (Rescue %) 1 μM” value was found to be 11.36% and the “Necroptosis inhibition assay (Rescue %) 10 μM” value was determined as 5.3%. In test [2], the “Degradation assay (Degradation %) 1 μM” value stood at 50.93% and the “Degradation assay (Degradation %) 10 μM” value is recorded as 42.16%. This compound also registered a Kd in test [3] of 5.4 nM.
Turning to `Nc1ncc(-c2cnn(C3CCN(CC4CCN(C(=O)COc5ccc6c(c5)C(=O)N(C5CCC(=O)NC5=O)C6=O)CC4)CC3)c2)nc1C(=O)N[C@@H](C(=O)Nc1ccc(F)cc1)c1ccccc1` (stereo partly drawn) [TDH-187, 3-amino-6-(1-(1-((1-(2-((2-(2,6-dioxopiperidin-3-yl)-1,3-dioxoisoindolin-5-yl)oxy)acetyl)piperidin-4-yl)methyl)piperidin-4-yl)-1H-pyrazol-4-yl)-N-((R)-2-((4-fluorophenyl)amino)-2-oxo-1-phenylethyl)pyrazine-2-carboxamide], in test [1], the “Necroptosis inhibition assay (Rescue %) 1 μM” value was found to be 28.68% and the “Necroptosis inhibition assay (Rescue %) 10 μM” value worked out at 29.31%. Moreover, in test [2], the “Degradation assay (Degradation %) 1 μM” value is on record as 27.67%. The compound further returned a Kd in test [3] of 150 nM.
For `Nc1ncc(-c2cnn(C3CCN(C4CC5(CCN(CC6CCN(C(=O)Cc7cccc(NC8=CC(=O)N(C9CCC(=O)NC9=O)C8=O)c7)CC6)CC5)C4)CC3)c2)nc1C(=O)O[C@@H](C(=O)Nc1ccc(F)cc1)c1ccccc1` (stereo partly drawn) [TDH-500, (R)-2-((4-fluorophenyl)amino)-2-oxo-1-phenylethyl 3-amino-6-(1-(1-(7-((1-(2-(3-((1-(2,6-dioxopiperidin-3-yl)-2,5-dioxo-2,5-dihydro-1H-pyrrol-3-yl)amino)phenyl)acetyl)piperidin-4-yl)methyl)-7-azaspiro[3.5]nonan-2-yl)piperidin-4-yl)-1H-pyrazol-4-yl)pyrazine-2-carboxylate], in test [1] (FADD−/− Jurkat cells), the “Necroptosis inhibition assay (Rescue %) 1 μM” value was found to be 25.16% and the “Necroptosis inhibition assay (Rescue %) 10 μM” value was determined as 0.16%. In addition, in test [2], the “Degradation assay (Degradation %) 1 μM” value is recorded as 80.41% and the “Degradation assay (Degradation %) 10 μM” value came to 83.21%. Further, the affinity in test [3], expressed as Kd, was 0.64 nM.
Taken in the same sequence, the figures for `Nc1ncc(-c2cnn(C3CCN(CCCC4CCN(C(=O)CCc5ccc6c(c5)C(=O)N(C5CCC(=O)NC5=O)C6=O)CC4)CC3)c2)nc1C(=O)O[C@@H](C(=O)Nc1ccc(F)cc1)c1ccccc1` (stereo partly drawn) [TDH-484, (R)-2-((4-fluorophenyl)amino)-2-oxo-1-phenylethyl 3-amino-6-(1-(1-(3-(1-(3-(2-(2,6-dioxopiperidin-3-yl)-1,3-dioxoisoindolin-5-yl)propanoyl)piperidin-4-yl)propyl)piperidin-4-yl)-1H-pyrazol-4-yl)pyrazine-2-carboxylate] were 66.68%, 37.9%, 89.17%, 91.3% and 0.92 nM.
With `Nc1ncc(-c2cnn(C3CCN(C(=O)c4cn(C5CCN(C(=O)COc6ccc7c(c6)C(=O)N(C6CCC(=O)NC6=O)C7=O)CC5)cn4)CC3)c2)nc1C(=O)O[C@@H](C(=O)Nc1ccc(F)cc1)c1ccccc1` (stereo partly drawn) [TDH-355, (R)-2-((4-fluorophenyl)amino)-2-oxo-1-phenylethyl 3-amino-6-(1-(1-(1-(1-(2-((2-(2,6-dioxopiperidin-3-yl)-1,3-dioxoisoindolin-5-yl)oxy)acetyl)piperidin-4-yl)-1H-imidazole-4-carbonyl)piperidin-4-yl)-1H-pyrazol-4-yl)pyrazine-2-carboxylate], in test [1], the “Necroptosis inhibition assay (Rescue %) 1 μM” value worked out at 22.40% and the “Necroptosis inhibition assay (Rescue %) 10 μM” value is reported as 26.54%. For the same compound, in test [2], the “Degradation assay (Degradation %) 1 μM” value came out at 59.51% and the “Degradation assay (Degradation %) 10 μM” value stood at 61.42%. The compound also came in with a Kd in test [3] of 1.9 nM.
